Assay results published in PubChem BioAssay (NCI).
Several values for one entry are separate records, joined by “and”; a condition that tells them apart may be missing. Identical values can stand only once.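 Test compounds were applied to cells in 96-well plates for 48 hours at 5 doses. The concentration for 50% growth inhibition is given as GI50. Definition used: TGI = concentration required for complete inhibition of growth.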

Columns and labels:
Assay in all cases: inhibition of tumour cell growth, NCI panel, 48 h
HOP-92 NSCLC = tested on: HOP-92 NSCLC
ACHN renal = tested on: ACHN renal
HT29 colon = tested on: HT29 colon
OVCAR-5 ovarian = tested on: OVCAR-5 ovarian
SK-OV-3 ovarian = tested on: SK-OV-3 ovarian
NCI-H226 lung = tested on: NCI-H226 lung
HOP-62 NSCLC = tested on: HOP-62 NSCLC
T-47D breast = tested on: T-47D breast
DU-145 prostate = tested on: DU-145 prostate
K-562 leukemia = tested on: K-562 leukemia

Structure (SMILES)	GI50 (HOP-92 NSCLC)	TGI (HOP-92 NSCLC)	GI50 (ACHN renal)	TGI (ACHN renal)	GI50 (HT29 colon)	TGI (HT29 colon) [µM]	GI50 (OVCAR-5 ovarian)	TGI (OVCAR-5 ovarian)	GI50 (SK-OV-3 ovarian)	TGI (SK-OV-3 ovarian)	GI50 (NCI-H226 lung)	TGI (NCI-H226 lung)	GI50 (HOP-62 NSCLC)	TGI (HOP-62 NSCLC)	GI50 (T-47D breast)	TGI (T-47D breast)	GI50 (DU-145 prostate)	TGI (DU-145 prostate)	GI50 (K-562 leukemia)	TGI (K-562 leukemia) [µM]
O=c1c2c3c(sc2n2c(-c4ccc(Br)cc4)nnc2n1Cc1ccccc1)CCCC3	3.41 µM	16.1 µM	8.74 µM	21.1 µM	20.6 µM	58.7	9.1 µM	24.8 µM	5.88 µM	18.8 µM	7.32 µM	20.3 µM	3.97 µM	17.6 µM	4.42 µM	16.8 µM	9.72 µM	22.9 µM	23.8 µM	> 100
CCCCCCNC(=O)Oc1ccc(/C(=C(\C)c2ccccc2)c2ccc(OCCN(CC)CC)cc2)cc1	2.59 µM	9.16 µM	5.99 µM	12.2 µM	1.17 µM	2.9	6.71 µM	13.2 µM	8.33 µM	15.2 µM	6.67 µM	14.3 µM	6.51 µM	13.4 µM	1.07 µM	8.17 µM	7.45 µM	14.6 µM	1.36 µM	5.31
CC(=O)N1CCN(CCOc2ccc(C3CCN(C4=Nn5c(nnc5C(F)(F)F)CC4)CC3)cc2)CC1	7.64 µM	> 100 µM	10.6 µM	> 100 µM	9.08 µM	> 100	89.4 µM	> 100 µM	21.1 µM	> 100 µM	34.8 µM	> 100 µM	11.5 µM	> 100 µM	5.21 µM	> 100 µM	63 µM	> 100 µM	8.25 µM	> 100
CCOC(=O)c1ccccc1-c1c2ccc(=[N+](C)C)cc-2oc2cc(N(C)C)ccc12	0.619 µM	3.96 µM	1.28 µM	8.1 µM	0.211 µM		0.537 µM	> 39.6 µM	0.306 µM	1.74 µM	0.758 µM	10.2 µM	0.352 µM	10.3 µM	0.104 µM	19.8 µM	0.174 µM	24.1 µM	0.145 µM	> 35.1
O=[As]c1ccc(C(=O)c2ccc(Oc3ccccc3)cc2)cc1 (configuration not stated)	0.159 µM	0.361 µM	0.0358 µM	0.114 µM	0.0379 µM	0.154	0.129 µM	0.264 µM	0.12 µM	0.249 µM	0.106 µM	0.226 µM	0.0356 µM	0.105 µM	0.0316 µM	0.156 µM	0.0348 µM	0.123 µM	0.0188 µM	0.117
CCCCCc1c(C)[nH]c(/C=C2\N=C(c3ccc[nH]3)C=C2OCc2ccccc2)c1C	0.00832 µM and 0.0187 µM	0.0562 µM and 0.0647 µM	0.0514 µM and 0.0324 µM	0.941 µM and 0.75 µM	0.0314 µM and 0.0196 µM	1.22	0.0701 µM and 0.0473 µM	2.31 µM and 1.63 µM	0.326 µM and 0.0978 µM	2.48 µM and 0.983 µM	0.0748 µM and 0.201 µM	1.65 µM and 2.03 µM	0.164 µM and 0.0925 µM	1.89 µM and 1.37 µM	0.0445 µM and 0.0311 µM	0.741 µM and 1.01 µM	0.0581 µM and 0.0366 µM	1.62 µM and 1.08 µM	0.0372 µM and 0.0448 µM	
COc1cccc(C2=C(c3cn(C)c4cccc(OC)c34)C(=O)NC2=O)c1	8.89 µM	> 25 µM	15.5 µM	> 25 µM	5.34 µM	> 25	> 23.5 µM	> 25 µM	11.6 µM	> 25 µM	> 25 µM	> 25 µM	18.8 µM	> 25 µM	13.7 µM	> 25 µM	10.7 µM	> 25 µM	3.51 µM	> 25
O=C(Nc1ccc(I)cc1F)c1cc(I)ccc1O	0.179 µM	0.777 µM	1.69 µM	> 100 µM	3.71 µM	> 100	3.05 µM	> 100 µM	2.56 µM	> 100 µM	0.739 µM	6.11 µM	0.815 µM	3.4 µM	0.649 µM	2.94 µM	0.873 µM	> 100 µM	0.434 µM	> 100
C=CCCC(=O)N1C=CC(=O)[C@H](O)[C@@H]1/C=C/c1ccccc1	30.8 µM	> 32.5 µM	5.27 µM	> 32.5 µM	14.4 µM	> 32.5	> 32.5 µM	> 32.5 µM	18.6 µM	> 32.5 µM	9.57 µM	> 32.5 µM	13.3 µM	> 32.5 µM	15.5 µM	> 32.5 µM	10.4 µM	> 32.5 µM	9.3 µM	> 32.5
Nc1c(C(=O)Nc2cccc(Br)c2)sc2nc3c(cc12)C(O)CCC3 (configuration not stated)	0.383 µM	11.4 µM	0.848 µM	31.1 µM	0.319 µM	11	3.37 µM	60 µM	0.57 µM	40.8 µM	0.936 µM	54.4 µM	0.575 µM	48.3 µM	13.9 µM	> 100 µM	0.455 µM	22.4 µM	0.12 µM	> 38.4
O=C(Nc1cc(-c2cccnc2)nc(NCCCN2CCOCC2)n1)c1cc(Br)cc(C(F)(F)F)c1	1.97 µM	7.62 µM	3.04 µM	11.3 µM	2.12 µM	4.95	6.33 µM	23.5 µM	7.26 µM	19.9 µM	9.3 µM	22.7 µM	2.71 µM	9.98 µM	3.72 µM	16.1 µM	6.7 µM	19.1 µM	2.8 µM	21.7
OC(COc1cccc2ccccc12)CN1CCN(c2ccccc2Cl)CC1 (configuration not stated)	2.47 µM	16.8 µM	13.9 µM	27.5 µM	3.3 µM	12.5	11.5 µM	24.1 µM	16.8 µM	37.8 µM	15 µM	31.6 µM	13.7 µM	27.3 µM	13.9 µM	29.6 µM	14.6 µM	28.5 µM	4.58 µM	17.6
CCOC(=O)Cc1csc(NC(=O)COC(=O)c2ccc(OC)cc2)n1	7.58 µM	24.3 µM	> 100 µM	> 100 µM	30.8 µM	> 80.1	> 51.3 µM	> 83.8 µM	> 75.4 µM	> 100 µM	> 100 µM	> 100 µM	> 78.8 µM	> 100 µM	> 100 µM	> 100 µM	57.2 µM	> 100 µM	1.16 µM	> 60.9
CC1(C)[C@@H](OC(N)=O)C=C[C@]2(C=O)[C@H]3CC[C@]4(C)[C@@H](c5ccc(=O)oc5)[C@@H](Cl)C[C@]4(O)C3=CC[C@@H]12	0.0057 µM	0.0165 µM	< 0.0025 µM	0.00649 µM	0.00521 µM	0.011	0.00581 µM	0.0135 µM	0.00653 µM	0.0194 µM	0.00433 µM	0.00829 µM	0.00331 µM	0.00699 µM	0.00635 µM	0.0175 µM	0.0041 µM	0.00785 µM	0.00668 µM	0.0197
O=C(NCCCCOCC#Cc1ccccc1C#CCS(=O)(=O)c1ccccc1)c1cc2ccccc2[nH]1	1.39 µM	15.7 µM	9.64 µM	22.9 µM	13.7 µM	> 50	26.8 µM	> 50 µM	19.5 µM	> 50 µM	9.85 µM	25 µM	21.5 µM	> 50 µM	12.3 µM	> 37.5 µM	18.1 µM	> 50 µM	6.83 µM	> 50
Cn1ncc(-c2ccc3c(=O)[nH]nc(CN)c3c2)c1-c1c(F)cc2ccccc2c1C#N	4.06 µM	18.1 µM	4.07 µM	16.5 µM	3.34 µM	14.5	11.3 µM	29.4 µM	13.6 µM	26.8 µM	7.69 µM	24.3 µM	6.31 µM	20.3 µM	3.48 µM	17.6 µM	8.59 µM	21.1 µM	3.41 µM	38.3
C#CCN(Cc1nc2cc(C(F)(F)F)ccc2nc1-c1ccccc1)c1ccc(F)c(F)c1	59.5 µM	> 100 µM	78.3 µM	> 100 µM	41.1 µM	> 100	> 100 µM	> 100 µM	> 100 µM	> 100 µM	92.5 µM	> 100 µM	> 100 µM	> 100 µM	63.5 µM	> 100 µM	37.3 µM	> 100 µM	39.4 µM	> 100
CC[C@H](NC(=O)[C@H](CS(=O)(=O)CC1CC1)N[C@@H](c1ccc(F)cc1)C(F)(F)F)C(=O)C(=O)NC1CC1	98.7 µM	> 100 µM	> 100 µM	> 100 µM	> 100 µM	> 100	> 100 µM	> 100 µM	> 100 µM	> 100 µM	> 100 µM	> 100 µM	> 100 µM	> 100 µM	> 100 µM	> 100 µM	> 100 µM	> 100 µM	> 100 µM	> 100
Cc1c(C(=O)O[C@H]2[C@@H]3[C@H](C)CC[C@H]3[C@]3(C)O[C@@]2(C2CCCCC2)C[C@H]3OC(=O)CO)ccc2ccccc12	4.19 µM	10.4 µM	0.0589 µM	0.766 µM	7.07 µM	14.2	9.5 µM	17.8 µM	9.19 µM	17.1 µM	7.67 µM	15.1 µM	8.48 µM	15.3 µM	5.37 µM	11.6 µM	7.77 µM	14.6 µM	11 µM	27
N#Cc1c2c(c(-c3cccs3)n(C3OC(CO)C(O)C(O)C3O)c1=S)CCc1ccccc1-2 (configuration not stated)	3.35 µM	> 88.8 µM	13.8 µM and > 92.2 µM	> 100 µM	6.27 µM and > 20.9 µM	> 100		> 100 µM		> 100 µM		> 100 µM	14.9 µM and 38.5 µM	> 100 µM	> 25.1 µM and 7.83 µM	> 100 µM		> 100 µM		> 100
C#Cc1cc2c(N)c(C(=O)c3cc(OC)c(OC)c(OC)c3)[nH]c2cc1OC	0.334 µM	37.7 µM	0.574 µM	> 100 µM	0.374 µM	76.2	3.79 µM	> 100 µM	0.517 µM	> 100 µM	5.74 µM	> 100 µM	0.58 µM	> 100 µM	0.449 µM	54.7 µM	1.2 µM	> 100 µM	0.462 µM	> 100
N=C(N)SCCc1ccccn1		> 100 µM		> 100 µM		> 100		> 100 µM		> 100 µM		> 100 µM		> 100 µM		> 100 µM		> 100 µM		> 100
CCCn1c(N)c(C(=O)CNc2ccc(I)cc2)c(=O)[nH]c1=O	7.86 µM	> 24.3 µM	8.69 µM	> 100 µM	1.23 µM	> 100	> 100 µM	> 100 µM	> 100 µM	> 100 µM	12.9 µM	> 100 µM	9.98 µM	> 100 µM	> 100 µM	> 100 µM	7.12 µM	> 100 µM		> 100
COc1cc(-c2nn(-c3ccc(NC(=O)c4cc(Cl)cc(Cl)c4)cc3)cc2-c2ccncc2)ccc1Cl	> 100 µM	> 100 µM	> 100 µM	> 100 µM	3.53 µM	> 100	> 100 µM	> 100 µM	> 100 µM	> 100 µM	> 100 µM	> 100 µM	32 µM	> 100 µM	> 100 µM	> 100 µM	> 100 µM	> 100 µM	2.91 µM	> 100
